pEC50: −log10 of the molar value.
Biological target: T1, M1 muscarinic acetylcholine receptor (Mus musculus, UniProt P12657)
T1 sequence (P12657 1-460): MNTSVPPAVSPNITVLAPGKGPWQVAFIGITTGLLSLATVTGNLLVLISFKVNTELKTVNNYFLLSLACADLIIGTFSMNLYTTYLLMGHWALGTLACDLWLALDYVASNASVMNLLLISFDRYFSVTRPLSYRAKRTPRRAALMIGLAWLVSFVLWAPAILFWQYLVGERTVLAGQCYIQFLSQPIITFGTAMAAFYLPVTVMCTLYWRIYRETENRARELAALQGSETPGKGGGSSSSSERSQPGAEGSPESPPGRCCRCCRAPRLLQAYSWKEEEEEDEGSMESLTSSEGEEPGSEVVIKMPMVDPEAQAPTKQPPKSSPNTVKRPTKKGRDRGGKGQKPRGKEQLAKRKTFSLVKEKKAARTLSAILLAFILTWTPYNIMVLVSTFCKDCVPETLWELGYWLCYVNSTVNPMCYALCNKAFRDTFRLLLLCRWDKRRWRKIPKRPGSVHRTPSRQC
Assay: previously published M1 PAM compared side-by-side with VU6004256
Type: cell-based

Cn1cc(-c2ccc(CN3Cc4ncccc4C3=O)c(F)c2)cn1 [compound 1, VU0453595]
pEC50: 5.49

Source: paper PMC5231396 (ACS chemical neuroscience, 2016)
